# Assay: Shake-flask solubility with spectrophotometric measurement in aqueous DES mixtures
# Type: physicochemical
# Method: In order to determine the solubility of the three studied phenolic acids in deep eutectic solvents, a very well-established shake-flask method coupled with spectrophotometric measurements was utilized. The initial procedure involved the preparation of various DESs, which was conducted by mixing their HBA and HBD counterparts in a glass vessel and heating the composition until the formation of a transparent, uniform liquid. […] For additional measurements, the DESs were mixed with water in varying proportions, creating aqueous DES systems. Saturated solutions of CAF, SYR, and COU were obtained by adding excess amounts of these compounds to test tubes containing either a neat deep eutectic solvent or its aqueous solution. Such samples were placed in the Orbital Shaker Incubator ES-20/60 from Biosan (Riga, Latvia) and heated for 24 h at 25 °C, 30 °C, 35 °C, and 40 °C (±0.1 °C) with simultaneous mixing at 60 rpm. Before measurements, the samples were filtered using a PTFE syringe filter from Qpore (Dallas, TX, USA) with a 0.22 μm pore size. In order to avoid possible precipitation of the saturated solutions at decreased temperatures, the test tubes, syringes, pipette tips, and filters were kept at a temperature identical to that of the samples. The spectrophotometric measurements required the preparation of calibration curves for the three APIs. This involved the preparation of a stock solution of each compound in methanol, which was later successfully diluted, and the obtained solutions of varying concentrations were measured using an A360 spectrophotometer from AOE Instruments (Shanghai, China). The wavelength range was set to 200-500 nm, and the resolution was 1 nm. The analytical wavelengths were determined to be 324 nm for caffeic acid, 273 nm for syringic acid, and 308 nm for p-coumaric acid. The final regression equations, obtained after averaging three distinct sets of measurements, are collected in Table 2 together with determination coefficients and limits of detection (LOD) and quantification (LOQ) for the calibration curves. The measurements of the samples were conducted with the same spectrophotometer and identical settings. Methanol was used for the dilution of the samples so that they could remain within the linearity range of the method. Complete spectra of the samples were recorded, but for the solubility determination, the absorbance values at a specific analytical wavelength were considered. These values were combined with the corresponding regression equations of the calibration curves and served for the calculation of the concentration of the three phenolic acids in the studied samples. The densities of such samples were also measured, and for this task 1 mL of each sample was weighed to a precision of 0.1 mg using an AS 110 R2.PLUS analytical balance from […] (Radom, Poland). The obtained densities enabled the calculation of mole fractions of CAF, SYR, and COU dissolved in the studied DESs. For each considered system, three distinct measurements were conducted, and the results were averaged.
smiles,measurement,setting,value
"COc1cc(C(=O)O)cc(OC)c1O [syringic acid, 4-hydroxy-3,5-dimethoxybenzoic acid]",Mole fraction solubility,"Bet – TEG 1:2 + water, x*DES 0.1, 25°C",0.0042±0.0001 mole fraction
same,Mole fraction solubility,"Bet – TEG 1:2 + water, x*DES 0.1, 30°C",0.0046±0.0001 mole fraction
same,Mole fraction solubility,"Bet – TEG 1:2 + water, x*DES 0.1, 35°C",0.0057±0.0001 mole fraction
same,Mole fraction solubility,"Bet – TEG 1:2 + water, x*DES 0.1, 40°C",0.0067±0.0001 mole fraction
same,Mole fraction solubility,"Bet – TEG 1:2 + water, x*DES 0.2, 25°C",0.0093±0.0001 mole fraction
same,Mole fraction solubility,"Bet – TEG 1:2 + water, x*DES 0.2, 30°C",0.0105±0.0001 mole fraction
same,Mole fraction solubility,"Bet – TEG 1:2 + water, x*DES 0.2, 35°C",0.0127±0.0001 mole fraction
same,Mole fraction solubility,"Bet – TEG 1:2 + water, x*DES 0.2, 40°C",0.0148±0.0002 mole fraction
same,Mole fraction solubility,"Bet – TEG 1:2 + water, x*DES 0.3, 25°C",0.0153±0.0001 mole fraction
same,Mole fraction solubility,"Bet – TEG 1:2 + water, x*DES 0.3, 30°C",0.0173±0.0001 mole fraction
same,Mole fraction solubility,"Bet – TEG 1:2 + water, x*DES 0.3, 35°C",0.0207±0.0002 mole fraction
same,Mole fraction solubility,"Bet – TEG 1:2 + water, x*DES 0.3, 40°C",0.0239±0.0002 mole fraction
same,Mole fraction solubility,"Bet – TEG 1:2 + water, x*DES 0.4, 25°C",0.0214±0.0002 mole fraction
same,Mole fraction solubility,"Bet – TEG 1:2 + water, x*DES 0.4, 30°C",0.0247±0.0001 mole fraction
same,Mole fraction solubility,"Bet – TEG 1:2 + water, x*DES 0.4, 35°C",0.0290±0.0002 mole fraction
same,Mole fraction solubility,"Bet – TEG 1:2 + water, x*DES 0.4, 40°C",0.0341±0.0003 mole fraction
same,Mole fraction solubility,"Bet – TEG 1:2 + water, x*DES 0.5, 25°C",0.0284±0.0002 mole fraction
same,Mole fraction solubility,"Bet – TEG 1:2 + water, x*DES 0.5, 30°C",0.0318±0.0002 mole fraction
same,Mole fraction solubility,"Bet – TEG 1:2 + water, x*DES 0.5, 35°C",0.0386±0.0002 mole fraction
same,Mole fraction solubility,"Bet – TEG 1:2 + water, x*DES 0.5, 40°C",0.0457±0.0003 mole fraction
same,Mole fraction solubility,"Bet – TEG 1:2 + water, x*DES 0.6, 25°C",0.0351±0.0003 mole fraction
same,Mole fraction solubility,"Bet – TEG 1:2 + water, x*DES 0.6, 30°C",0.0396±0.0003 mole fraction
same,Mole fraction solubility,"Bet – TEG 1:2 + water, x*DES 0.6, 35°C",0.0475±0.0009 mole fraction
same,Mole fraction solubility,"Bet – TEG 1:2 + water, x*DES 0.6, 40°C",0.0568±0.0006 mole fraction
same,Mole fraction solubility,"Bet – TEG 1:2 + water, x*DES 0.7, 25°C",0.0425±0.0003 mole fraction
same,Mole fraction solubility,"Bet – TEG 1:2 + water, x*DES 0.7, 30°C",0.0483±0.0005 mole fraction
same,Mole fraction solubility,"Bet – TEG 1:2 + water, x*DES 0.7, 35°C",0.0579±0.0010 mole fraction
same,Mole fraction solubility,"Bet – TEG 1:2 + water, x*DES 0.7, 40°C",0.0702±0.0004 mole fraction
same,Mole fraction solubility,"Bet – TEG 1:2 + water, x*DES 0.8, 30°C",0.0558±0.0006 mole fraction
same,Mole fraction solubility,"Bet – TEG 1:2 + water, x*DES 0.8, 35°C",0.0673±0.0015 mole fraction
same,Mole fraction solubility,"Bet – TEG 1:2 + water, x*DES 0.8, 40°C",0.0790±0.0009 mole fraction
same,Mole fraction solubility,"Bet – TEG 1:2 + water, x*DES 0.9, 25°C",0.0488 mole fraction
same,Mole fraction solubility,"Bet – TEG 1:2 + water, x*DES 0.9, 25°C, listed as syryngic acid",0.0488±0.0004 mole fraction
same,Mole fraction solubility,"Bet – TEG 1:2 + water, x*DES 0.9, 30°C",0.0551±0.0005 mole fraction
same,Mole fraction solubility,"Bet – TEG 1:2 + water, x*DES 0.9, 35°C",0.0682±0.0014 mole fraction
same,Mole fraction solubility,"Bet – TEG 1:2 + water, x*DES 0.9, 40°C",0.0796±0.0008 mole fraction
same,Mole fraction solubility,"Bet – TEG 1:2, x*DES 1.0 (neat DES), 25°C",0.0474±0.0003 mole fraction
same,Mole fraction solubility,"Bet – TEG 1:2, x*DES 1.0 (neat DES), 30°C",0.0541±0.0004 mole fraction
same,Mole fraction solubility,"Bet – TEG 1:2, x*DES 1.0 (neat DES), 35°C",0.0657±0.0011 mole fraction
same,Mole fraction solubility,"Bet – TEG 1:2, x*DES 1.0 (neat DES), 40°C",0.0778±0.0009 mole fraction
same,Increase in the solubility compared to the neat DES,"Bet-TEG 1:2, x*DES = 0.9 (xwater = 0.1), 25 °C",3%
same,Mole fraction solubility,"ChCl – TEG 1:2 + water, x*DES 0.1, 25°C",0.0069±0.0001 mole fraction
same,Mole fraction solubility,"ChCl – TEG 1:2 + water, x*DES 0.1, 30°C",0.0093±0.0001 mole fraction
same,Mole fraction solubility,"ChCl – TEG 1:2 + water, x*DES 0.1, 35°C",0.0131±0.0001 mole fraction
same,Mole fraction solubility,"ChCl – TEG 1:2 + water, x*DES 0.1, 40°C",0.0174±0.0002 mole fraction
same,Mole fraction solubility,"ChCl – TEG 1:2 + water, x*DES 0.2, 25°C",0.0122±0.0001 mole fraction
same,Mole fraction solubility,"ChCl – TEG 1:2 + water, x*DES 0.2, 30°C",0.0158±0.0001 mole fraction
same,Mole fraction solubility,"ChCl – TEG 1:2 + water, x*DES 0.2, 35°C",0.0218±0.0001 mole fraction
same,Mole fraction solubility,"ChCl – TEG 1:2 + water, x*DES 0.2, 40°C",0.0305±0.0002 mole fraction
same,Mole fraction solubility,"ChCl – TEG 1:2 + water, x*DES 0.3, 25°C",0.0186±0.0001 mole fraction
same,Mole fraction solubility,"ChCl – TEG 1:2 + water, x*DES 0.3, 30°C",0.0249±0.0001 mole fraction
same,Mole fraction solubility,"ChCl – TEG 1:2 + water, x*DES 0.3, 35°C",0.0347±0.0003 mole fraction

# Source: paper PMC12564265, “Navigating the Deep Eutectic Solvent Landscape: Experimental and Machine Learning Solubility Explorations of Syringic, p-Coumaric, and Caffeic Acids” (International Journal of Molecular Sciences, 2025)
